The values below come from ChEMBL document CHEMBL1201862, “PubChem BioAssay data set” (2004).

Some test systems named below: 786-0; A498; ACHN; HL-60; HOP-62; HT-29; IGROV-1; MOLT-4; NCI-H460; NCI-H522; RPMI-8226; SK-MEL-28; SK-MEL-2; SNB-75; SNB-78; MDA-MB-231; MDA-MB-435; NCI/ADR-RES; PC-3; T47D.
What all share (assay): NCI anticancer screen, dose series, 48 h

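Dose response: 5 concentrations. Exposure: 48 h. Format: 96-well plates. Endpoint: linear interpolation; highest concentration if not reached. Abbreviation: GI50, concentration required for 50% inhibition of growth.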 Calls of active or inactive are those of the source. Cut-off read from the data, not from the text of the source: active = GI50 up to about 1.1 µM and inactive = higher.

Turning to `COc1ccc(NC(=O)c2cc(OC)c(OC)c(OC)c2)cc1`, the GI50 in the assay with 786-0 is > 81.8 µM (inactive); in the assay on A498, 43.6 µM (inactive); in the assay with ACHN, 83.8 µM (inactive); with HL-60, 22.2 µM (inactive); in the assay on HOP-62, 33 µM (inactive); with HT-29, 36.8 µM (inactive). In addition, the GI50 is 66.1 µM (inactive) with IGROV-1; 34.3 µM (inactive) in the assay on MOLT-4; 35.9 µM (inactive) in the assay on NCI-H460; 30.2 µM (inactive) in the assay on NCI-H522; 39.5 µM (inactive) with RPMI-8226; 29 µM (inactive) in the assay with SK-MEL-28. For the same compound, the figures for the GI50 in the assay on SK-MEL-2, in the assay on SNB-75 and in the assay on SNB-78 were 21.8 µM (inactive), 42.2 µM (inactive) and 42.7 µM (inactive), respectively.

As for `CCOC(=O)Nc1cc2c(c(N)n1)N=C(c1ccccc1)[C@H](C)N2` [MIVOBULIN ISETHIONATE], the GI50 with 786-0 is 0.00215 µM (active); with A498 it was 0.0299 µM (active); in the assay on ACHN it was < 0.0001 µM (active); with HL-60 it was < 0.0001 µM (active); in the assay with HOP-62, 0.0562 µM (active); in the assay on HT-29 it was < 0.0001 µM (active). The GI50 with IGROV-1, in the assay with MDA-MB-231, with MDA-MB-435, with MOLT-4, in the assay on NCI-H460 and in the assay with NCI-H522 was < 0.0001 µM (active) throughout. Further, the GI50 was < 0.0001 µM (active) in the assay with NCI/ADR-RES; < 0.0001 µM (active) in the assay with PC-3; 0.000215 µM (active) with RPMI-8226; < 0.0001 µM (active) in the assay on SK-MEL-2; 0.000215 µM (active) in the assay on SNB-75; 0.01 µM (active) in the assay on SNB-78.

For `CC1=C(C(=O)NCc2ccccc2)C(c2ccccc2O)C(C(=O)NCc2ccccc2)=C(C)N1`, the GI50 is 19.3 µM (inactive) in the assay with 786-0; 19 µM (inactive) with A498; 16.4 µM (inactive) in the assay on ACHN; 17.3 µM (inactive) in the assay with HL-60; 19.9 µM (inactive) with HOP-62; 19.5 µM (inactive) with HT-29. The GI50 with IGROV-1 is 19.5 µM (inactive); in the assay with MOLT-4, 31.3 µM (inactive); with NCI-H460, 18.4 µM (inactive); with NCI-H522 it was 16.5 µM (inactive); in the assay on RPMI-8226, 29.6 µM (inactive); in the assay with SK-MEL-28 it was 18 µM (inactive). For the same compound, the GI50 in the assay with SK-MEL-2 was 15.4 µM (inactive); in the assay with SNB-75, 23.6 µM (inactive); in the assay with SNB-78 it was 27.9 µM (inactive).

For `Oc1cc(-c2cccc(F)c2)nc2cc3c(cc12)OCO3`, the GI50 with 786-0 is 0.0441 µM (active); with A498 it was 0.157 µM (active); in the assay with ACHN, 0.119 µM (active); in the assay with HL-60 it was 0.0313 µM (active); with HOP-62, 0.165 µM (active); with IGROV-1, 0.102 µM (active). Also, the GI50 with MDA-MB-231 was 0.141 µM (active); in the assay on MDA-MB-435, 0.0112 µM (active); in the assay on MOLT-4, 0.136 µM (active); in the assay on NCI-H460, 0.07 µM (active); in the assay with NCI-H522, 0.029 µM (active); in the assay with NCI/ADR-RES, 0.0199 µM (active). Besides, the GI50 is 0.0473 µM (active) in the assay on PC-3; 0.0581 µM (active) with RPMI-8226; 0.0439 µM (active) with SK-MEL-28; 0.0308 µM (active) in the assay with SK-MEL-2; 0.0334 µM (active) in the assay with SNB-75; 0.343 µM (active) in the assay on SNB-78. Also, the GI50 in the assay on T47D was > 100 µM (inactive).

`C=C(C)C(=O)OC1CC2=CC(CC3(C)OC3C3OC(=O)C(=C)C13)OC2=O` (stereo not drawn): the GI50 with 786-0 is 7.24 µM (inactive); in the assay with A498 it was 16.6 µM (inactive); in the assay with ACHN it was 5.41 µM (inactive); with HL-60, 1.12 µM (active); in the assay on HOP-62 it was 22.4 µM (inactive); in the assay with HT-29 it was 6.97 µM (inactive). In addition, the GI50 is 19.3 µM (inactive) in the assay with IGROV-1; 18.1 µM (inactive) in the assay with MDA-MB-231; 15.2 µM (inactive) with MDA-MB-435; 1.84 µM (inactive) in the assay on MOLT-4; 17.9 µM (inactive) with NCI-H460; 1.92 µM (inactive) in the assay on NCI-H522. Also, the GI50 was 14.7 µM (inactive) in the assay with PC-3; 12.3 µM (inactive) in the assay with SK-MEL-28; 12.9 µM (inactive) with SK-MEL-2; 14.7 µM (inactive) in the assay on SNB-75; 12.1 µM (inactive) in the assay on SNB-78; 4.67 µM (inactive) in the assay with T47D.

On to `CCCN(CCCCC(NC(C)=O)C(=O)NCc1ccccc1)C(=O)N(CCCl)N=O` (stereo not drawn), for which the GI50 in the assay with 786-0 was 2.33 µM (inactive); in the assay on A498 it was > 86.9 µM (inactive); in the assay on ACHN, 25.8 µM (inactive); in the assay with HL-60 it was 22.3 µM (inactive); in the assay on HOP-62, 25.5 µM (inactive); in the assay on HT-29, > 96.6 µM (inactive). The GI50 in the assay with IGROV-1 is > 92.3 µM (inactive); in the assay on MDA-MB-231 it was > 100 µM (inactive); in the assay with MDA-MB-435, > 100 µM (inactive); in the assay with MOLT-4, 36.3 µM (inactive); in the assay with NCI-H460, 10.1 µM (inactive); with NCI-H522 it was > 82.2 µM (inactive). Besides, the GI50 in the assay with NCI/ADR-RES was 31.6 µM (inactive); in the assay on PC-3 it was 32.8 µM (inactive); with RPMI-8226 it was 98.2 µM (inactive); with SK-MEL-28, > 100 µM (inactive); with SK-MEL-2, > 100 µM (inactive); with SNB-75, 27.1 µM (inactive). In addition, the GI50 is > 100 µM (inactive) in the assay with SNB-78 and 78.9 µM (inactive) in the assay with T47D.

As to `CC(C)N1CN(C(C(=O)N[C@@H]2C(=O)N3C2SC(C)(C)C3C(=O)O)c2ccccc2)CSC1=S` (stereo partly drawn), the GI50 in the assay with 786-0 is > 100 µM (inactive); in the assay on A498, > 100 µM (inactive); in the assay with ACHN, > 100 µM (inactive); with HL-60, > 100 µM (inactive); in the assay with HOP-62, > 100 µM (inactive); with HT-29 it was 96.6 µM (inactive). Also, the GI50 with IGROV-1 was > 100 µM (inactive); in the assay with MOLT-4, > 100 µM (inactive); in the assay on NCI-H460, 43.7 µM (inactive); in the assay with NCI-H522 it was 27.8 µM (inactive); in the assay with RPMI-8226 it was 69.5 µM (inactive); with SK-MEL-28, > 100 µM (inactive). Moreover, the GI50 in the assay on SK-MEL-2, in the assay with SNB-75 and in the assay on SNB-78 was > 100 µM (inactive) throughout.

As to `O=C(CC1(O)C(=O)Nc2c(Cl)cc(Cl)cc21)c1ccc(Br)cc1Br` (stereo not drawn), the GI50 in the assay with 786-0 was 11.3 µM (inactive); with A498, 22.1 µM (inactive); in the assay on ACHN, 14.1 µM (inactive); in the assay with HL-60 it was 1.04 µM (active); in the assay with HOP-62, 20.8 µM (inactive); in the assay with HT-29, 17.7 µM (inactive). The GI50 in the assay on IGROV-1 is 16.6 µM (inactive); in the assay on MDA-MB-231 it was 14.7 µM (inactive); in the assay on MDA-MB-435 it was 12.8 µM (inactive); in the assay with MOLT-4, 1.32 µM (inactive); with NCI-H460, 16 µM (inactive); with NCI-H522, 2.89 µM (inactive). The GI50 in the assay on PC-3 was 16.9 µM (inactive); with RPMI-8226, 2.75 µM (inactive); with SK-MEL-28, 14.3 µM (inactive); in the assay with SK-MEL-2 it was 15.2 µM (inactive); in the assay on SNB-75, 18.1 µM (inactive); with SNB-78, 22.5 µM (inactive).
